Here are results for 19 compounds from US7816522B2, “Triazolone derivatives” (Eisai Co., Ltd., priority 2006, dated 2010).

The test addresses T1, human clotting factor VIIa (Homo sapiens, UniProt P08709).
T1 construct: a human clotting factor VIIa (hereinafter, “Factor VIIa”) purified sample; purchased Enzyme Research Laboratories HFVIIa
Put plainly: Inhibitory activity against clotting factor VIIa (chromogenic substrate Spectrozyme FVIIa, TF/Factor VIIa enzyme solution). Type of test: biochemical. As to conditions: human Factor VIIa 5 nmol/L with human TF 10 nmol/L, room temperature 40 minutes, 405 nm. The procedure, abridged: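 Human Factor VIIa (5 nmol/L) with human TF (10 nmol/L) in Tris-BSA buffer pH 7.4 containing 15 mmol/L CaCl2 and cephalin, with Spectrozyme FVIIa substrate. Reaction 40 min at room temperature; 4-nitroanilide read at 405 nm. IC50 by non-linear regression over 100 μmol/L–0.1 nmol/L.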

Counter-ions that a name gives are not always drawn.

T1 sequence (P08709 213-466 limits assumed): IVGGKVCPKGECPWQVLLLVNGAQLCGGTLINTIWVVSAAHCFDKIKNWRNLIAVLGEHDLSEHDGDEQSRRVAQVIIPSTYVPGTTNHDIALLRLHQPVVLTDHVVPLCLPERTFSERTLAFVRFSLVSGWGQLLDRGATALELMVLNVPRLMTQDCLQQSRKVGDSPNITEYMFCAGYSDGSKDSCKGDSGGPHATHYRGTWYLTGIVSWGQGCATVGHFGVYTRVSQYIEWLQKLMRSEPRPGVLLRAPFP
T1 sequence (P08709 61-212 limits assumed): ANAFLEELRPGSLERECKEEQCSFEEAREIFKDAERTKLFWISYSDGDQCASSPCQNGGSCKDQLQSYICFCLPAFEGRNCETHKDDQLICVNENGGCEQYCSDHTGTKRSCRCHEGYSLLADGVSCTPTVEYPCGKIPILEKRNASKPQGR
T1 sequence (P13726 33-295 partner): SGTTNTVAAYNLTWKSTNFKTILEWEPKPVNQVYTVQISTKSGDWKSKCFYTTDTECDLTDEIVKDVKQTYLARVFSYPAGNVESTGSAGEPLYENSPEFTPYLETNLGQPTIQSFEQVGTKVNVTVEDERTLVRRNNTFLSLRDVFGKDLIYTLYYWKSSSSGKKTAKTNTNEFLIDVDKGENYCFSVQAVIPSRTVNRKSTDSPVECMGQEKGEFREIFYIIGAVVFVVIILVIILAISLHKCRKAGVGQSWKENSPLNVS

Turning to `COCCOc1c(OC)cc(C(Nc2ccc(C(=N)N)cc2)c2nn(-c3ccccc3OC)c(=O)[nH]2)cc1OC` (stereo not shown) [Example 87, 4-({[3,5-dimethoxy-4-(2-methoxyethoxy)phenyl]-[1-(2-methoxyphenyl)-5-oxo-4,5-dihydro-1H-[1,2,4]triazol-3-yl]methyl}amino)benzamidine acetate], the IC50 – broadly, the concentration that inhibits the measured activity by half – was 4.2 nM.
As for `CCOc1cccc(C(Nc2ccc(C(=N)N)cc2)c2nn(-c3ncccn3)c(=O)[nH]2)c1` (stereo not shown) [Example 90, 4-{[(3-ethoxyphenyl)-(5-oxo-1-pyrimidin-2-yl-4,5-dihydro-1H-[1,2,4]triazol-3-yl)methyl]amino}benzamidine acetate], the figure is 66.6 nM; as for `COc1ccccc1-n1nc(C(Nc2ccc(C(=N)N)cc2)c2cc(C)cc(OCCF)c2F)[nH]c1=O` (stereo not shown) [Example 91, 4-({[2-fluoro-3-(2-fluoroethoxy)-5-methylphenyl]-[1-(2-methoxyphenyl)-5-oxo-4,5-dihydro-1H-[1,2,4]triazol-3-yl]methyl}amino)benzamidine trifluoroacetate], 6.4 nM.
Take `COc1cc(C(Nc2ccc(C(=N)N)cc2)c2nn(-c3ccccc3C(N)=O)c(=O)[nH]2)ccc1OCC(=O)N(C)C` (stereo not shown) [Example 105, 2-{3-[(4-carbamimidoyl-phenylamino)-(4-dimethylcarbamoylmethoxy-3-methoxyphenyl)methyl]-5-oxo-4,5-dihydro-1H-[1,2,4]triazol-1-yl}benzamide trifluoroacetate]: the IC50 was 31.7 nM.
As for `COc1cc(F)c(C(Nc2ccc(C(=N)N)cc2)c2nn(-c3ccccc3N)c(=O)[nH]2)cc1OC` (stereo not shown) [Example 107, 4-({[1-(2-aminophenyl)-5-oxo-4,5-dihydro-1H-[1,2,4]triazol-3-yl]-(2-fluoro-4,5-dimethoxyphenyl)methyl}amino)benzamidine trifluoroacetate], half-maximal inhibition (IC50) was put at 4.3 nM.
In turn, `COc1ccccc1-n1nc(C(Nc2ccc(C(=N)N)cc2)c2cc(C)c(OC)c(C)c2)[nH]c1=O` (stereo not shown) [Example 112, 4-({(4-methoxy-3,5-dimethylphenyl)-[1-(2-methoxyphenyl)-5-oxo-4,5-dihydro-1H-[1,2,4]triazol-3-yl]methyl}amino)benzamidine acetate] gave an IC50 of 7.2 nM. This IC50 is about 1.7-fold higher than that of the compound before.
Consider `CCOc1cc(C(Nc2ccc(C(=N)N)cc2)c2nn(-c3ncccn3)c(=O)[nH]2)ccc1OCC#N` (stereo not shown) [Example 114, 4-{[(4-cyanomethoxy-3-ethoxyphenyl)-(5-oxo-1-pyrimidin-2-yl-4,5-dihydro-1H-[1,2,4]triazol-3-yl)methyl]amino}benzamidine trifluoroacetate], for which the midpoint of inhibition, the IC50, lay at 22.8 nM.
As for `COc1cc(F)c(C(Nc2ccc(C(=N)N)cc2)c2nn(-c3ncccc3OC)c(=O)[nH]2)cc1OC` (stereo not shown) [Example 124, 4-({(2-fluoro-4,5-dimethoxyphenyl)-[1-(3-methoxypyridin-2-yl)-5-oxo-4,5-dihydro-1H-[1,2,4]triazol-3-yl]methyl}amino)benzamidine acetate], the IC50 is 10 nM.
`COc1cc(F)c(C(Nc2ccc(C(=N)N)cc2)c2nn(-c3ncccc3F)c(=O)[nH]2)cc1OC` (stereo not shown) [Example 125, 4-({(2-fluoro-4,5-dimethoxyphenyl)-[1-(3-fluoropyridin-2-yl)-5-oxo-4,5-dihydro-1H-[1,2,4]triazol-3-yl]methyl}amino)benzamidine acetate] displayed an IC50 of 10.3 nM.
Compound `CCOc1cc(C(Nc2ccc(C(=N)N)cc2)c2nn(-c3ncccc3OC)c(=O)[nH]2)ccc1OCC(=O)NC` (stereo not shown) [Example 126, 2-(4-{(4-carbamimidoylphenylamino)-[1-(3-methoxypyridin-2-yl)-5-oxo-4,5-dihydro-1H-[1,2,4]triazol-3-yl]methyl}-2-ethoxyphenoxy)-N-methyl-acetamide acetate] came in with an IC50 of 10.9 nM. This IC50 and that of the compound before are within 1.5-fold of each other.
For `CCOc1cc(C(Nc2ccc(C(=N)N)cc2)c2nn(-c3ncccc3C)c(=O)[nH]2)ccc1OCC(=O)NC` (stereo not shown) [Example 127, 2-(4-{(4-carbamimidoylphenylamino)-[1-(3-methylpyridin-2-yl)-5-oxo-4,5-dihydro-1H-[1,2,4]triazol-3-yl]methyl}-2-ethoxyphenoxy)-N-methylacetamide acetate], the IC50 came out at 9.3 nM.
With `CCOc1cc(C(Nc2ccc(C(=N)N)cc2)c2nn(-c3ncccc3C)c(=O)[nH]2)ccc1OCCOC` (stereo not shown) [Example 128, 4-({[3-ethoxy-4-(2-methoxyethoxy)phenyl]-[1-(3-methylpyridin-2-yl)-5-oxo-4,5-dihydro-1H-[1,2,4]triazol-3-yl]methyl}amino)benzamidine acetate], inhibition was half-maximal at 9.9 nM (IC50).
The compound `COc1cc(F)c(C(Nc2ccc(C(=N)N)cc2)c2nn(-c3ncccc3Br)c(=O)[nH]2)cc1OC` (stereo not shown) [Example 134, 4-({[1-(3-bromopyridin-2-yl)-5-oxo-4,5-dihydro-1H-[1,2,4]triazol-3-yl]-(2-fluoro-4,5-dimethoxyphenyl)methyl}amino)benzamidine acetate] came in with an IC50 of 11.7 nM.
Compound `CCc1cc(OCC(=O)N(C)C)c(F)c(C(Nc2ccc(C(=N)N)cc2)c2nn(-c3ccccc3NC(=O)OC)c(=O)[nH]2)c1` (stereo not shown) [Example 135, (2-{3-[(4-carbamimidoylphenylamino)-(3-dimethylcarbamoylmethoxy-5-ethyl-2-fluorophenyl)methyl]-5-oxo-4,5-dihydro-1H-[1,2,4]triazol-1-yl}phenyl)carbamic acid methyl ester trifluoroacetate] displayed an IC50 of 8.6 nM.
Turning to `COc1cc(F)c(C(Nc2ccc(C(=N)N)cc2)c2nn(-c3ncccc3N)c(=O)[nH]2)cc1OC` (stereo not shown) [Example 138, 4-({[1-(3-aminopyridin-2-yl)-5-oxo-4,5-dihydro-1H-[1,2,4]triazol-3-yl]-(2-fluoro-4,5-dimethoxyphenyl)methyl}amino)benzamidine trifluoroacetate], the midpoint of inhibition, the IC50, lay at 17 nM.
`CCc1cc(OCCN(C)C)c(F)c(C(Nc2ccc(C(=N)N)cc2)c2nn(-c3ccccc3N)c(=O)[nH]2)c1` (stereo not shown) [Example 139, 4-({[1-(2-aminophenyl)-5-oxo-4,5-dihydro-1H-[1,2,4]triazol-3-yl]-[3-(2-dimethylaminoethoxy)-5-ethyl-2-fluorophenyl]methyl}amino)benzamidine bistrifluoroacetate] had an IC50 of 3.8 nM.
Compound `CCc1cc(OCCN(C)C)c(F)c(C(Nc2ccc(C(=N)N)cc2)c2nn(-c3ccccn3)c(=O)[nH]2)c1` (stereo not shown) [Example 140, 4-({[3-(2-dimethylaminoethoxy)-5-ethyl-2-fluorophenyl]-(5-oxo-1-pyridin-2-yl-4,5-dihydro-1H-[1,2,4]triazol-3-yl)methyl}amino)benzamidine bistrifluoroacetate] displayed an IC50 of 5.3 nM.
The compound `CCc1cc(OC(C)CN(C)C)c(F)c(C(Nc2ccc(C(=N)N)cc2)c2nn(-c3ccccn3)c(=O)[nH]2)c1` (stereo not shown) [Example 141, 4-({[3-(2-dimethylamino-1-methylethoxy)-5-ethyl-2-fluorophenyl]-(5-oxo-1-pyridin-2-yl-4,5-dihydro-1H-[1,2,4]triazol-3-yl)methyl}amino)benzamidine bistrifluoroacetate] showed an IC50 of 5 nM.
As to `CCc1cc(OCC(C)(C)CN(C)C)c(F)c(C(Nc2ccc(C(=N)N)cc2)c2nn(-c3ccccc3C(=O)O)c(=O)[nH]2)c1` (stereo not shown) [Example 142, 2-(3{(4-carbamimidoyl-phenylamino)-[3-(3-dimethylamino-2,2-dimethylpropoxy)-5-ethyl-2-fluorophenyl]methyl}-5-oxo-4,5-dihydro-1H-[1,2,4]triazol-1-yl}benzoic acid bistrifluoroacetate], the IC50 was determined as 4.7 nM.
